Molecular target: T1, bacteriophage T4 DNA polymerase (Enterobacteria phage T4, UniProt P04415)
T1 construct: made in house
T1 sequence (P04415 1-898): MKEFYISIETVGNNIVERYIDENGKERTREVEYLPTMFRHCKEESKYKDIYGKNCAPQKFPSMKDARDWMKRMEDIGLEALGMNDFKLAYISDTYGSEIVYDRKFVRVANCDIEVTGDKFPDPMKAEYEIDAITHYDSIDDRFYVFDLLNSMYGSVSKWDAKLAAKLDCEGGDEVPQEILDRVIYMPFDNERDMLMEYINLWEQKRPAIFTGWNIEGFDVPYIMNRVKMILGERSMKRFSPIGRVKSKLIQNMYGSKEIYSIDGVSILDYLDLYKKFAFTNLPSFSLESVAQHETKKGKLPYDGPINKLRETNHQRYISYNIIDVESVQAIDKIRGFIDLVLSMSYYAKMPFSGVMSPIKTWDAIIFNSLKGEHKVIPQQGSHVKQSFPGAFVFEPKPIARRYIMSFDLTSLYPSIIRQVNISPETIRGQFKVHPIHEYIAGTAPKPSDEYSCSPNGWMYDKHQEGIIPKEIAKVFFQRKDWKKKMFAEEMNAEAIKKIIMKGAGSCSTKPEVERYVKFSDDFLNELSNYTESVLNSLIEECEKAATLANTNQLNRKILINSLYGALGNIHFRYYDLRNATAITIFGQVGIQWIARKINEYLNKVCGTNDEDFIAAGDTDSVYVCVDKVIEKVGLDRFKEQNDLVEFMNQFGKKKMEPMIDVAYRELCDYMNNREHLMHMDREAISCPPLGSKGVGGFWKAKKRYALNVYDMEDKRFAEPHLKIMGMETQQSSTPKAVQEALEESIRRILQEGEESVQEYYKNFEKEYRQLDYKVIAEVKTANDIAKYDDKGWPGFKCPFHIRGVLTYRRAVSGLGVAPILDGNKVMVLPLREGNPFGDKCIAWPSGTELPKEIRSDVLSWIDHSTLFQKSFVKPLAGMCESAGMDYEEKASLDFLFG
Assay: Counter-screen against bacteriophage T4 DNA polymerase
Format: biochemical
Settings: for % inhibition T4 10' 2.5 / % inhibition T4 10' 5 / % inhibition T4 10' 10 / % inhibition T4 10' 20 / % inhibition T4 10' 40 / % inhibition T4 10' 80: read at 10'; for % inhibition T4 70' 2.5 / % inhibition T4 70' 5 / % inhibition T4 70' 10 / % inhibition T4 70' 20 / % inhibition T4 70' 40 / % inhibition T4 70' 80: read at 70'; for % inhibition T4 130' 2.5 / % inhibition T4 130' 5 / % inhibition T4 130' 10 / % inhibition T4 130' 20 / % inhibition T4 130' 40 / % inhibition T4 130' 80: read at 130'; for % inhibition T4 40' 2.5 / % inhibition T4 40' 5 / % inhibition T4 40' 10 / % inhibition T4 40' 20 / % inhibition T4 40' 40 / % inhibition T4 40' 80: read at 40'; for % inhibition T4 90' 2.5 / % inhibition T4 90' 5 / % inhibition T4 90' 10 / % inhibition T4 90' 20 / % inhibition T4 90' 40 / % inhibition T4 90' 80: read at 90'; for % inhibition T4 180' 2.5 / % inhibition T4 180' 5 / % inhibition T4 180' 10 / % inhibition T4 180' 20 / % inhibition T4 180' 40 / % inhibition T4 180' 80: read at 180'
Procedure: Codon-optimized, exonuclease-deficient Pf-apPOL was overexpressed in E. coli BL21 (DE3) and purified as described. The protein was dialysed against two, 1-liter changes of 20 mM Tris-HCl (pH 8.0), 400 mM NaCl, and 20% glycerol. Plasmodium bergei and Babesia bovis apPOLs (Pb-apPOL and Bb-apPOL, respectively) were codon-optimized, expressed, and purified as for Pf-apPOL[15]. Bacteriophage T4 DNA polymerase was purified as described. The DNA oligonucleotides used to make the high-throughput substrate were obtained from Integrated DNA Technologies. Deoxynucleotides were purchased from Strategene. All other materials came from Fisher Scientific.
Each compound was tested in a dose-response format to determine IC50 values. […] T4 DNA polymerase can be produced in large quantities, and is in the same family (B-family) as the replicative human DNA polymerases (α, δ, and ε)[20].

## Cn1nc(-c2nc(-c3ccccc3)no2)c2c1CCN(C(=O)Cc1cccs1)C2 [Molecule 58, O=C(N1CCc2c(C1)c(nn2C)c1onc(n1)c1ccccc1)Cc1cccs1]
DRC-1, concentration 2.5
  % inhibition T4 10' 2.5: 2%
  % inhibition T4 70' 2.5: -0.863%
  % inhibition T4 130' 2.5: -2.41%
DRC-1, concentration 5
  % inhibition T4 10' 5: 6%
  % inhibition T4 70' 5: 0.684%
  % inhibition T4 130' 5: -0.486%
DRC-1, concentration 10
  % inhibition T4 10' 10: 20%
  % inhibition T4 70' 10: 13%
  % inhibition T4 130' 10: 9%
DRC-1, concentration 20
  % inhibition T4 10' 20: 24%
  % inhibition T4 70' 20: 17%
  % inhibition T4 130' 20: 14%
DRC-1, concentration 40
  % inhibition T4 10' 40: 35%
  % inhibition T4 70' 40: 26%
  % inhibition T4 130' 40: 24%
DRC-1, concentration 80
  % inhibition T4 10' 80: 33%
  % inhibition T4 70' 80: 37%
  % inhibition T4 130' 80: 33%
DRC-2, concentration 2.5
  % inhibition T4 10' 2.5: 2.64%
  % inhibition T4 40' 2.5: 2.18%
  % inhibition T4 90' 2.5: 2.76%
  % inhibition T4 180' 2.5: -1.52%
DRC-2, concentration 5
  % inhibition T4 10' 5: 8%
  % inhibition T4 40' 5: 6.41%
  % inhibition T4 90' 5: 7%
  % inhibition T4 180' 5: 1.9%
DRC-2, concentration 10
  % inhibition T4 10' 10: 17%
  % inhibition T4 40' 10: 17%
  % inhibition T4 90' 10: 17%
  % inhibition T4 180' 10: 13%
DRC-2, concentration 20
  % inhibition T4 10' 20: 20%
  % inhibition T4 40' 20: 22%
  % inhibition T4 90' 20: 21%
  % inhibition T4 180' 20: 15%
DRC-2, concentration 40
  % inhibition T4 10' 40: 23%
  % inhibition T4 40' 40: 27%
  % inhibition T4 90' 40: 24%
  % inhibition T4 180' 40: 20%
DRC-2, concentration 80
  % inhibition T4 10' 80: 20%
  % inhibition T4 40' 80: 25%
  % inhibition T4 90' 80: 22%
  % inhibition T4 180' 80: 20%

## Cc1cc2[nH]c(C(=O)Nc3ccc(F)cc3)c(CN3CCOCC3)c2s1 [Molecule 60, Fc1ccc(cc1)NC(=O)c1[nH]c2c(c1CN1CCOCC1)sc(c2)C]
DRC-1, concentration 2.5
  % inhibition T4 10' 2.5: 1.711%
  % inhibition T4 70' 2.5: 0.0854%
  % inhibition T4 130' 2.5: -1.799%
DRC-1, concentration 5
  % inhibition T4 10' 5: 9.215%
  % inhibition T4 70' 5: 3.336%
  % inhibition T4 130' 5: 0.5371%
DRC-1, concentration 10
  % inhibition T4 10' 10: 21.452%
  % inhibition T4 70' 10: 13.8719%
  % inhibition T4 130' 10: 9.245%
DRC-1, concentration 20
  % inhibition T4 10' 20: 34.4714%
  % inhibition T4 70' 20: 20.2889%
  % inhibition T4 130' 20: 15.4607%
DRC-1, concentration 40
  % inhibition T4 10' 40: 38.1099%
  % inhibition T4 70' 40: 27.4388%
  % inhibition T4 130' 40: 21.1797%
DRC-1, concentration 80
  % inhibition T4 10' 80: 40.6852%
  % inhibition T4 70' 80: 27.0179%
  % inhibition T4 130' 80: 22.3923%
DRC-2, concentration 2.5
  % inhibition T4 10' 2.5: 5.28%
  % inhibition T4 40' 2.5: 3.64%
  % inhibition T4 90' 2.5: 4%
  % inhibition T4 180' 2.5: -1.07%
DRC-2, concentration 5
  % inhibition T4 10' 5: 2.77%
  % inhibition T4 40' 5: 2.11%
  % inhibition T4 90' 5: 2.34%
  % inhibition T4 180' 5: -2.8%
DRC-2, concentration 10
  % inhibition T4 10' 10: 13%
  % inhibition T4 40' 10: 12%
  % inhibition T4 90' 10: 12%
  % inhibition T4 180' 10: 6%
DRC-2, concentration 20
  % inhibition T4 10' 20: 21%
  % inhibition T4 40' 20: 21%
  % inhibition T4 90' 20: 19%
  % inhibition T4 180' 20: 13%
DRC-2, concentration 40
  % inhibition T4 10' 40: 25%
  % inhibition T4 40' 40: 26%
  % inhibition T4 90' 40: 24%
  % inhibition T4 180' 40: 20%
DRC-2, concentration 80
  % inhibition T4 10' 80: 25%
  % inhibition T4 40' 80: 27%
  % inhibition T4 90' 80: 25%
  % inhibition T4 180' 80: 23%

## O=C1C(=Cc2ccccc2O)Oc2ccc(O)cc21 [KU0196475]
DRC-2, concentration 80
  % inhibition T4 10': 34%
DRC-2, concentration 2.5
  % inhibition T4 40': 10%
DRC-2, concentration 5
  % inhibition T4 40': 10%
DRC-2, concentration 10
  % inhibition T4 40': 21%
  % inhibition T4 90': 21%
DRC-2, concentration 40
  % inhibition T4 90': 34%

## COc1cccc(C(=O)N2CCc3c(nc4cc(-c5ccccc5)[nH]n4c3=O)C2)c1OC [Molecule 22, COc1c(OC)cccc1C(=O)N1CCc2c(C1)nc1n(c2=O)[nH]c(c1)c1ccccc1]
DRC-2, concentration 40
  % inhibition T4 10': -28%
  % inhibition T4 40': -28%
  % inhibition T4 90': -28%
  % inhibition T4 180': -29%
DRC-2, concentration 80
  % inhibition T4 10': -28%
  % inhibition T4 40': -27%
DRC-2, concentration 2.5
  % inhibition T4 40': -13%
  % inhibition T4 90': -11%
  % inhibition T4 180': -11%
DRC-2, concentration 10
  % inhibition T4 90': -29%
  % inhibition T4 180': -27%
DRC-2, concentration 20
  % inhibition T4 180': -29%

## Cc1ccc(C)n1-c1ccc(C(=O)NNC(=O)c2ccc3nccnc3c2)cc1 [Molecule 53, O=C(c1ccc(cc1)n1c(C)ccc1C)NNC(=O)c1ccc2c(c1)nccn2]
DRC-2, concentration 2.5
  % inhibition T4 10': 15%
  % inhibition T4 40': 15%
DRC-2, concentration 5
  % inhibition T4 10': 24%
  % inhibition T4 40': 24%
  % inhibition T4 90': 22%
DRC-2, concentration 10
  % inhibition T4 10': 29%
  % inhibition T4 40': 29%
  % inhibition T4 180': 22%
DRC-2, concentration 20
  % inhibition T4 10': 31%
  % inhibition T4 40': 31%
  % inhibition T4 90': 29%
  % inhibition T4 180': 24%
DRC-2, concentration 40
  % inhibition T4 10': 29%
  % inhibition T4 40': 29%
  % inhibition T4 90': 29%
DRC-2, concentration 80
  % inhibition T4 10': 38%
  % inhibition T4 40': 38%
